In PMC9505425, “Targeting of the Mitochondrial TET1 Protein by Pyrrolo[3,2-b]pyrrole Chelators” (International Journal of Molecular Sciences, 2022):
Several values for one entry are separate records, joined by “and”; a condition that tells them apart may be missing. Equal entries are not always repeated.

Assays:
Format in all cases: cell-based, human
[1] = MTT cytotoxicity assay, HF-P4; settings: human, HF-P4 normal human dermal fibroblasts, repeats, read-out: Cell viability %; for viability at 48 h, 0.1 µM: HF-P4, 100 nM; for viability at 48 h, 0.5 µM: HF-P4, 500 nM; for viability at 48 h, 0.75 µM: HF-P4, 750 nM; for viability at 48 h, 1 µM: HF-P4, 1 uM; for viability at 48 h, 2.5 µM: HF-P4, 2.5 uM; for viability at 48 h, 5 µM: HF-P4, 5 uM; for viability at 48 h, 7.5 µM: HF-P4, 7.5 uM; for viability at 48 h, 10 µM: HF-P4, 10 uM; for viability at 48 h, 15 µM: HF-P4, 15 uM; for viability at 48 h, 20 µM: HF-P4, 20 uM
Experimental: (§1) The effects of the tested compounds 1–6 on HF-P4, U-118 MG, H1299, BT-20, and Caov-3 cell lines were evaluated by the MTT assay during 48 h treatment (Table 2 and Tables S2–S31). In all tested compounds, we recognized a difference in cytotoxicity between healthy cells (HF-P4) and cancer cell lines (BT-20, Caov-3, and H-1299). […] In the case of ovarian cancer, the authors discovered oncogenic and poor prognosis roles of TET1 in epithelial ovarian carcinoma (EOC). TET1 is believed to demethylate the epigenome and activate numerous oncogenic pathways in EOC. The aforementioned study presents a new mechanism where TET1 contributes to tumor development through collaboration with CK2α [21]. The overexpression of the TET1 protein was also found in triple negative breast cancer and was associated with an activation of PI3K/mTOR pathway and decreased overall survival.
(§2) A human dermal fibroblast cell line was used for intracellular localization and cytotoxicity assay (MTT). Human fibroblast cells HF-P4 (human fibroblasts—patient 4) are normal dermal fibroblasts, which were obtained from the residual skin of a healthy patient who underwent plastic surgery (with informed consent of the patient). HF-P4 cell lines were obtained from the Department of Plastic Surgery, Third Faculty of Medicine, Charles University and University Hospital Královské Vinohrady, Prague, Czech Republic, as described by Szabo et al., 2011, and Dvořánková et al., 2019 [88, 89], and have been processed in accordance with the relevant local ethics committee and the Declaration of Helsinki protection of patients’ rights and benefits with written and signed informed consent of each patient. Cells were cultivated under standard conditions in Dulbecco’s modified Eagle’s medium (ATCC, Manassas, VA, USA), supplemented with 10% FBS and streptomycin (100 μg/mL) at 37 °C at a 5% CO2 atmosphere.
(§3) For the cytotoxicity assay, we used the following cell lines: human glioblastoma cell line U118-MG, human mammary gland/breast cell line BT-20, human ovary adenocarcinoma cell line Caov-3, and non-small-cell lung carcinoma H-1299. As previously mentioned, these cell lines contain a high level of the TET1 protein, which corresponds to a lower overall survival. In addition to these cell cultures, we used the human dermal fibroblast cell line HF-P4 as a healthy control. Determination of cytotoxicity was performed using the MTT [3-(4,5-dimethylthiazol-2-yl)-2,5-diphenyltetrazolium bromide] colorimetric assay. Viable cells from each cell line were cultured in 96-well plates (VWR, Stříbrná Skalice, Czech Republic) at a density of 1.0 × 10^5 cells per well and allowed to grow for 24 h in 200 μL of recommended medium. After a 1-day incubation, the medium was replaced with solutions of compounds 1–6 at concentration ranges of 0.1–20 μM. Each concentration was measured four times within one test, and the entire test was repeated three times. Tested compounds 1–6 were dissolved in DMSO and then diluted with corresponding medium to a final volume of 200 μL (maximum 1% DMSO). After 48 h exposure, cells were treated with 175 μL of MTT solution (P-LAB, Prague, Czech Republic) for 2 h. In the next step, MTT solution was removed, and 125 μL of DMSO (Penta, Prague, Czech Republic) was added to solubilize dark crystals of formazan formed in intact cells, and absorbance was measured at 570 nm by the enzyme-linked immunoabsorbent assay reader Infinite® 200 PRO (Tecan, Männedorf, Switzerland). The final DMSO concentration was smaller than 1% (v/v). The absorbance of untreated cells was considered 100%, and IC50 values were calculated by the GraphPad Prism 8 software. As a parameter for cytotoxicity, we used a concentration that inhibits 50% of cell growth (IC50).

[2] = tested on: HF-P4 cells; assay: MTT cytotoxicity assay, HF-P4; settings: 48 h; for Cell viability %: repeats; for IC50: Homo sapiens, MTT
Experimental: as §1, §2, §3

[3] = tested on: H-1299 cells; assay: MTT cytotoxicity assay, H-1299; settings: Homo sapiens; for viability at 2.5 µM: H-1299, 2.5 uM; for viability at 5 µM: H-1299, 5 uM; for viability at 10 µM: H-1299, 10 uM; for viability at 15 µM: H-1299, 15 uM; for viability at 20 µM: H-1299, 20 uM; for IC50: NCI-H1299, MTT, 48 h
Experimental: as §1
A human glioblastoma cell line (U118-MG) and a human non-small-cell lung carcinoma cell line (H1299) were used for the cytotoxicity assay (MTT). Both cell lines were generously supplied by Dr. M. Masařik, PhD, Department of Pathological physiology, Masaryk University, Czech Republic. U118-MG cells were cultivated under standard conditions in Dulbecco’s modified Eagle’s medium (ATCC, Manassas, VA, USA) supplemented with 10% FBS and streptomycin (100 μg/mL) at 37 °C at a 5% CO2 atmosphere. H1299 cells were cultivated under standard conditions in RPMI 1640 (BioTech, Prague, Czech Republic) medium supplemented with 10% FBS and streptomycin (100 μg/mL) at 37 °C at a 5% CO2 atmosphere.
as §3

[4] = tested on: Caov-3 cells; assay: MTT cytotoxicity assay, Caov-3; settings: for Cell viability % / IC50: 48 h; for IC50: Caov-3, MTT
Experimental: as §1
The human ovary adenocarcinoma cell line (Caov-3), purchased from ATCC (Caov-3 (ATCC® HTB-75™), Manassas, VA, USA), was used for the cytotoxicity assay (MTT). Caov-3 cells were cultivated under standard conditions in Dulbecco’s modified Eagle’s medium (ATCC, Manassas, VA, USA) supplemented with 10% FBS and streptomycin (100 μg/mL) at 37 °C at a 5% CO2 atmosphere.
as §3

[5] = NCI-H1299, 48 h, repeats, read-out: Cell viability %
[6] = Caov-3, 100 nM, repeats, 0.1 µM
[7] = Caov-3, 500 nM, repeats, 0.5 µM
[8] = Caov-3, 750 nM, repeats, 0.75 µM
[9] = Caov-3, 2.5 uM, repeats, 2.5 µM
[10] = Caov-3, 7.5 uM, repeats, 7.5 µM
[11] = Homo sapiens, Caov-3, 48 h, Caov-3, 5 uM, repeats, read-out: Cell viability %
[12] = Homo sapiens, Caov-3, 48 h, Caov-3, 10 uM, repeats, read-out: Cell viability %
[13] = Homo sapiens, Caov-3, 48 h, Caov-3, 15 uM, repeats, read-out: Cell viability %
[14] = Homo sapiens, Caov-3, 48 h, Caov-3, 20 uM, repeats, read-out: Cell viability %

COc1cccc(/C=N/NC(=O)c2ccc(-c3cc4c(cc(-c5ccc(C(=O)N/N=C/c6cccc(OC)c6O)cc5)n4-c4ccc(C)cc4)n3-c3ccc(C)cc3)cc2)c1O [Compound 5]
viability at 48 h, 0.1 µM [1]: 104%
viability at 48 h, 0.5 µM [1]: 105%
viability at 48 h, 0.75 µM [1]: 84.2%
viability at 48 h, 1 µM [1]: 105%
viability at 48 h, 2.5 µM [1]: 96.8%
viability at 48 h, 5 µM [1]: 84%
viability at 48 h, 7.5 µM [1]: 74.5%
viability at 48 h, 10 µM [1]: 76.7%
viability at 48 h, 15 µM [1]: 63%
viability at 48 h, 20 µM [1]: 52.2%
Cell viability % ([2]; HF-P4, 100 nM, 0.1 µM): 105.3072% and 105.0738%
Cell viability % ([2]; HF-P4, 500 nM, 0.5 µM): 98.21% and 101.0423%
Cell viability % ([2]; HF-P4, 750 nM, 0.75 µM): 95.79% and 102.0649%
Cell viability % ([2]; HF-P4, 1 uM, 1 µM): 86.8% and 100.59%
Cell viability % ([2]; HF-P4, 2.5 uM, 2.5 µM): 91.7616% and 90.46%
Cell viability % ([2]; HF-P4, 5 uM, 5 µM): 65.3% and 72.65%
Cell viability % ([2]; HF-P4, 7.5 uM, 7.5 µM): 71.79% and 64.35%
Cell viability % ([2]; HF-P4, 10 uM, 10 µM): 58.3808% and 56.93%
Cell viability % ([2]; HF-P4, 15 uM, 15 µM): 60.12% and 45.66%
Cell viability % ([2]; HF-P4, 20 uM, 20 µM): 55.03% and 53.24%
IC50 [2]: > 20 µM
viability at 0.1 µM ([3]; NCI-H1299, 48 h, H-1299, 100 nM, repeats, read-out: Cell viability %): 113%
viability at 0.5 µM ([3]; NCI-H1299, 48 h, H-1299, 500 nM, repeats, read-out: Cell viability %): 125%
viability at 2.5 µM [3, 5]: 106%
viability at 5 µM [3, 5]: 85.7%
viability at 7.5 µM ([3]; NCI-H1299, 48 h, H-1299, 7.5 uM, repeats, read-out: Cell viability %): 56.6%
viability at 10 µM [3, 5]: 47.9%
viability at 15 µM [3, 5]: 46.5%
viability at 20 µM [3, 5]: 31.4%
IC50 [3]: 10.1 µM
Cell viability % [4, 6]: 124.7159% and 131.0561% and 82.4%
Cell viability % [4, 7]: 90.56% and 116.6807% and 137.4211%
Cell viability % [4, 8]: 97.72% and 117.0859% and 120.9681%
Cell viability % ([4]; Caov-3, 1 uM, repeats, 1 µM): 115.5595% and 95.48% and 128.3145%
Cell viability % [4, 9]: 106.339% and 69.34% and 79.185%
Cell viability % ([4]; Caov-3, 5 uM, repeats, 5 µM): 81.63% and 70.92%
Cell viability % [4, 10]: 49.35% and 63.65%
Cell viability % ([4]; Caov-3, 10 uM, repeats, 10 µM): 41.31% and 47.33%
Cell viability % ([4]; Caov-3, 15 uM, repeats, 15 µM): 34.22% and 36.44%
Cell viability % ([4]; Caov-3, 20 uM, repeats, 20 µM): 16.1941% and 14.83%
viability at 5 µM [4, 11]: 83.6%
viability at 7.5 µM ([4]; Homo sapiens, Caov-3, 48 h, Caov-3, 7.5 uM, repeats, read-out: Cell viability %): 62.5%
viability at 10 µM [4, 12]: 29.5%
viability at 15 µM [4, 13]: 31.5%
viability at 20 µM [4, 14]: 17.9%
IC50 ([4]; Homo sapiens): 9.48 µM

Cc1ccc(-n2c(-c3ccc(C(=O)N/N=C/c4cc(F)ccc4O)cc3)cc3c2cc(-c2ccc(C(=O)N/N=C/c4cc(F)ccc4O)cc2)n3-c2ccc(C)cc2)cc1 [Compound 3]
viability at 48 h, 0.1 µM [1]: 95.8%
viability at 48 h, 0.5 µM [1]: 99.9%
viability at 48 h, 0.75 µM [1]: 107%
viability at 48 h, 1 µM [1]: 100%
viability at 48 h, 2.5 µM [1]: 87.1%
viability at 48 h, 5 µM [1]: 85.8%
viability at 48 h, 7.5 µM [1]: 78.7%
viability at 48 h, 10 µM [1]: 82.6%
viability at 48 h, 15 µM [1]: 65.6%
viability at 48 h, 20 µM [1]: 59%
Cell viability % ([2]; HF-P4, 100 nM, 0.1 µM): 96.12% and 98.08%
Cell viability % ([2]; HF-P4, 500 nM, 0.5 µM): 100.1756% and 103.312%
Cell viability % ([2]; HF-P4, 750 nM, 0.75 µM): 98.1566% and 91.216%
Cell viability % ([2]; HF-P4, 1 uM, 1 µM): 97.13% and 98.88%
Cell viability % ([2]; HF-P4, 2.5 uM, 2.5 µM): 92.78% and 93.78%
Cell viability % ([2]; HF-P4, 5 uM, 5 µM): 90.27% and 73.392%
Cell viability % ([2]; HF-P4, 7.5 uM, 7.5 µM): 83.18% and 77.088%
Cell viability % ([2]; HF-P4, 10 uM, 10 µM): 74.37% and 72.544%
Cell viability % ([2]; HF-P4, 15 uM, 15 µM): 66.4% and 65.2%
Cell viability % ([2]; HF-P4, 20 uM, 20 µM): 62.78% and 65.696%
IC50 [2]: > 20 µM
viability at 2.5 µM [3, 5]: 124%
viability at 5 µM [3, 5]: 85.7%
viability at 10 µM [3, 5]: 47.9%
viability at 15 µM [3, 5]: 58.9%
viability at 20 µM [3, 5]: 31.4%
IC50 [3]: 10.6 µM
Cell viability % [4, 6]: 80.39% and 71.14%
Cell viability % [4, 7]: 93.5% and 75.39% and 98.76%
Cell viability % [4, 8]: 86.6015% and 81.49% and 112.9009%
Cell viability % ([4]; Caov-3, 1 uM, repeats, 1 µM): 86.92% and 97.81%
Cell viability % [4, 9]: 89.39% and 98.69%
Cell viability % ([4]; Caov-3, 5 uM, repeats, 5 µM): 67.61% and 86.52%
Cell viability % [4, 10]: 83.04% and 61.94% and 104.0087%
Cell viability % ([4]; Caov-3, 10 uM, repeats, 10 µM): 67.37% and 81.12%
Cell viability % ([4]; Caov-3, 15 uM, repeats, 15 µM): 57.51% and 62.97%
Cell viability % ([4]; Caov-3, 20 uM, repeats, 20 µM): 34.98% and 37.9%
viability at 0.1 µM ([4]; Homo sapiens, Caov-3, 48 h, Caov-3, 100 nM, repeats, read-out: Cell viability %): 84.4%
viability at 1 µM ([4]; Homo sapiens, Caov-3, 48 h, Caov-3, 1 uM, repeats, read-out: Cell viability %): 89.4%
viability at 2.5 µM ([4]; Homo sapiens, Caov-3, 48 h, Caov-3, 2.5 uM, repeats, read-out: Cell viability %): 85.3%
viability at 5 µM [4, 11]: 70.6%
viability at 10 µM [4, 12]: 65.4%
viability at 15 µM [4, 13]: 59%
viability at 20 µM [4, 14]: 35.5%
IC50 ([4]; Homo sapiens): 17.8 µM
